Molecules are shown by their SMILES. ≈ marks a conversion by molar mass, not a printed value.

The nature of the series: solubility of suspension in buffer. The format is physicochemical. As to conditions: aqueous buffer; in the buffer at 37° C. when implanted.

Broadly, the solubility is the concentration that dissolves in the medium under given conditions. Read a low solubility as little dissolved substance. With `CC1(C)O[C@@H]2C[C@H]3[C@@H]4CCC5=CC(=O)C=C[C@]5(C)[C@@]4(F)[C@@H](O)C[C@]3(C)[C@]2(C(=O)CO)O1` [triamcinolone acetonide], the solubility is approximately 19 µg/mL (≈ 43.7 µM).
